This is an account of results in the NIST ThermoML archive (doi:10.1021/je800848u).

Numbers after ± are expanded uncertainties.

Series [1] in a line: Molar enthalpy of transition or fusion. To be noted: Crystal; DSC.
For series [2] the following is noted: Crystal; visual observation.

With `O=C(O)c1ccccc1Cl` [2-chlorobenzoic acid], the “Molar enthalpy of transition or fusion” value in series [1] came out at 6.58 ± 0.189 kcal/mol. The Normal melting temperature in series [2] came out at 141.00 ± 0.4 °C.

In the case of `NC(=O)c1ccccc1` [benzamide], the “Molar enthalpy of transition or fusion” value in series [1] came out at 5.53 ± 0.163 kcal/mol. Besides, the Normal melting temperature in series [2] was 127.00 ± 0.4 °C.
